Test results reported in the supplement of paper PMC10733146.

Key:
Assay in all cases: viability relative to DMSO control (fraction); higher = less drug effect (more viable cells)
Details in all cases: 48 h
[1] = tested on: primary ALL patient cells (S088)
Procedure, shortened: (§1)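 Cells were incubated for 48 h at 37 °C and 5% CO2 in RPMI-1640 with penicillin/streptomycin, L-glutamine and human serum, at 4 × 10^4 cells per well in 384-well plates with compounds pre-plated at five concentrations, one well each. These were primary mononuclear tumour cells, fresh or cryopreserved, Ficoll-isolated from blood or bone marrow or obtained from processed lymph node. Viability values are CellTiter-Glo luminescence relative to the median of 16 inner DMSO wells.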

[2] = tested on: primary AML patient cells (S007)
Procedure, shortened: as §1

[3] = tested on: primary AML patient cells (S009)
Procedure, shortened: as §1

[4] = tested on: primary AML patient cells (S011)
Procedure, shortened: as §1

[5] = tested on: primary AML patient cells (S021)
Procedure, shortened: as §1

[6] = tested on: primary AML patient cells (S027)
Procedure, shortened: as §1

[7] = tested on: primary AML patient cells (S060)
Procedure, shortened: as §1

[8] = tested on: primary AML patient cells (S081)
Procedure, shortened: as §1

[9] = tested on: primary B-PLL patient cells (S016)
Procedure, shortened: as §1

[10] = tested on: primary DLBCL patient cells (S049)
Procedure, shortened: as §1

[11] = tested on: primary DLBCL patient cells (S076)
Procedure, shortened: as §1

[12] = tested on: primary DLBCL patient cells (S082)
Procedure, shortened: as §1

[13] = tested on: primary FL patient cells (S087)
Procedure, shortened: as §1

[14] = tested on: primary MCL patient cells (S041)
Procedure, shortened: as §1

[15] = tested on: primary MCL patient cells (S063)
Procedure, shortened: as §1

[16] = tested on: primary T-NHL patient cells (S058)
Procedure, shortened: as §1

[17] = tested on: primary T-PLL patient cells (S008)
Procedure, shortened: as §1

SMILES: Cc1sc2c(c1C)C(c1ccc(Cl)cc1)=N[C@@H](CC(=O)Nc1ccc(O)cc1)c1nnc(C)n1-2 [OTX015]
- viability ([1]; 0.016 µM): 0.862
- viability ([1]; 0.08 µM): 0.726
- viability ([1]; 0.4 µM): 0.448
- viability ([1]; 2 µM): 0.394
- viability ([1]; 10 µM): 0.325
- viability ([2]; 0.016 µM): 1.16
- viability ([2]; 0.08 µM): 1.08
- viability ([2]; 0.4 µM): 0.561
- viability ([2]; 2 µM): 0.335
- viability ([2]; 10 µM): 0.24
- viability ([3]; 0.016 µM): 0.859
- viability ([3]; 0.08 µM): 0.752
- viability ([3]; 0.4 µM): 0.6
- viability ([3]; 2 µM): 0.489
- viability ([3]; 10 µM): 0.457
- viability ([4]; 0.016 µM): 1
- viability ([4]; 0.08 µM): 0.899
- viability ([4]; 0.4 µM): 0.766
- viability ([4]; 2 µM): 0.742
- viability ([4]; 10 µM): 0.758
- viability ([5]; 0.016 µM): 0.937
- viability ([5]; 0.08 µM): 1.02
- viability ([5]; 0.4 µM): 0.894
- viability ([5]; 2 µM): 0.815
- viability ([5]; 10 µM): 0.634
- viability ([6]; 0.016 µM): 0.93
- viability ([6]; 0.08 µM): 0.894
- viability ([6]; 0.4 µM): 0.73
- viability ([6]; 2 µM): 0.536
- viability ([6]; 10 µM): 0.408
- viability ([7]; 0.016 µM): 1.01
- viability ([7]; 0.08 µM): 1.03
- viability ([7]; 0.4 µM): 0.775
- viability ([7]; 2 µM): 0.501
- viability ([7]; 10 µM): 0.344
- viability ([8]; 0.016 µM): 0.847
- viability ([8]; 0.08 µM): 0.793
- viability ([8]; 0.4 µM): 0.475
- viability ([8]; 2 µM): 0.257
- viability ([8]; 10 µM): 0.205
- viability ([9]; 0.016 µM): 1.06
- viability ([9]; 0.08 µM): 1.15
- viability ([9]; 0.4 µM): 0.891
- viability ([9]; 2 µM): 0.711
- viability ([9]; 10 µM): 0.687
- viability ([10]; 0.016 µM): 1.02
- viability ([10]; 0.08 µM): 0.891
- viability ([10]; 0.4 µM): 0.482
- viability ([10]; 2 µM): 0.2
- viability ([10]; 10 µM): 0.119
- viability ([11]; 0.016 µM): 1.05
- viability ([11]; 0.08 µM): 0.942
- viability ([11]; 0.4 µM): 0.802
- viability ([11]; 2 µM): 0.699
- viability ([11]; 10 µM): 0.6
- viability ([12]; 0.016 µM): 0.872
- viability ([12]; 0.08 µM): 0.674
- viability ([12]; 0.4 µM): 0.244
- viability ([12]; 2 µM): 0.116
- viability ([12]; 10 µM): 0.0851
- viability ([13]; 0.016 µM): 1.02
- viability ([13]; 0.08 µM): 1.01
- viability ([13]; 0.4 µM): 0.913
- viability ([13]; 2 µM): 0.866
- viability ([13]; 10 µM): 0.805
- viability ([14]; 0.016 µM): 1.01
- viability ([14]; 0.08 µM): 1.01
- viability ([14]; 0.4 µM): 0.866
- viability ([14]; 2 µM): 0.806
- viability ([14]; 10 µM): 0.708
- viability ([15]; 0.016 µM): 1.14
- viability ([15]; 0.08 µM): 1.14
- viability ([15]; 0.4 µM): 0.91
- viability ([15]; 2 µM): 0.654
- viability ([15]; 10 µM): 0.566
- viability ([16]; 0.016 µM): 1.09
- viability ([16]; 0.08 µM): 0.875
- viability ([16]; 0.4 µM): 0.764
- viability ([16]; 2 µM): 0.576
- viability ([16]; 10 µM): 0.591
- viability ([17]; 0.016 µM): 1.02
- viability ([17]; 0.08 µM): 1.01
- viability ([17]; 0.4 µM): 0.983
- viability ([17]; 2 µM): 0.996
- viability ([17]; 10 µM): 1.02
